In patent US20140112878A1, “Tyrosinase Inhibitor” (priority 2012, published 2014):

Tests used:
[1] = test system: Normal human neonatal epidermal melanocytes (NHEMs); test: Alamar blue cell respiration activity (cell toxicity); type: cell-based; settings: for Alamar blue (cell toxicity) AVE: cultured NHEMs
Protocol: (§1) Medium 254 containing a PMA-free growth supplement (HMGS) was used as a medium.
(§2) After cultivating for 3 days, Endotheline-1 (ET-1), SCF, α-MSH, Histamine, and PGE2, each prepared to be the final concentration of 1 nM in the medium, were added. The same test compounds used in Example 1 were also added so as to reach the final concentration. The mixture was cultured at 37° C. for 3 days, in the presence of 5% CO2. The same amount of DMSO was added as a control.
After the completion of the cultivation, 20 L/well of alamar blue reagent (Invitrogen Corporation) was added. After incubating for 2 to 3 hours, the fluorescence intensity of the medium was measured to monitor the cell respiration activity. Then, the cells were washed with PBS, and 20 μL/well of extraction buffer (0.1 M Tris-HCL (pH 7.2), 1% NP-40, 0.01% SDS, 100 μM PMSF, 1 μg/m aprotinin) and 20 μL/well of Assay Buffer (4% dimethylformamide, 100 mM Sodium phosphate-buffered (pH 7.1)) were added. The cells were solubilized at 4° C. for 3 hours, and DOPA oxidase activity was measured.

[2] = biological target: T1, human tyrosinase (neonatal epidermal melanocyte extract) (Homo sapiens, UniProt P14679); test: DOPA oxidase activity (MBTH method) in cell extract; type: biochemical; settings: for DOPA oxidase activity, value relative to that of the control: N=3; for DOPA oxidase activity suppressive effect (in words): IPMP 0.00075 to 0.015 w/v %
T1 construct: host or cells: normal human neonatal epidermal melanocytes (NHEMs), detergent/ultrasonication lysate supernatant
T1 sequence (P14679 19-529): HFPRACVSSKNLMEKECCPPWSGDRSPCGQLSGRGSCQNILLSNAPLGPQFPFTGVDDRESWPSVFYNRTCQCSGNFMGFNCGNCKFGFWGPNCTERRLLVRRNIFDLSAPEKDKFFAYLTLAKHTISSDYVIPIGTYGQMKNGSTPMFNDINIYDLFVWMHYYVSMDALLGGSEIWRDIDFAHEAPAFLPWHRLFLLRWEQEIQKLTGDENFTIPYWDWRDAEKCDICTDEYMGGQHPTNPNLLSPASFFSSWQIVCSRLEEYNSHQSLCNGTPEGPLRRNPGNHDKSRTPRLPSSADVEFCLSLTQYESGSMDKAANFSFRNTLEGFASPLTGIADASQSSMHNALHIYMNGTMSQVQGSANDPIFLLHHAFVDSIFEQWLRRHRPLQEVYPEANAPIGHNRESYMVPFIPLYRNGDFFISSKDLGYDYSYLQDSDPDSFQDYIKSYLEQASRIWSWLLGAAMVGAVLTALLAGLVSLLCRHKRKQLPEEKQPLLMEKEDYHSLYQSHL
Protocol: The cells were then treated with ultrasonication, and were centrifuged at 15000 r.p.m. for 10 minutes, and the supernatant was obtained.
Tyrosinase activity was measured using the cell extract mentioned above. […] Then, 20 μL of the following test compounds were added to the wells so that the mixture reaches the final concentration shown in Table 1.

[3] = test system: mushroom-derived tyrosinase; settings: reported in JP-A-9-249544; cited from earlier work
[4] = biological target: T2, tyrosinase (DOPA oxidase activity) in normal human neonatal epidermal melanocytes (NHEMs) (Homo sapiens, UniProt P14679); test: DOPA oxidase activity in cultured normal human neonatal epidermal melanocytes
T2 sequence (P14679 19-529): T1 sequence (P14679 19-529)
Protocol: as §1, §2
After the completion of the cultivation, 20 L/well of alamar blue reagent (Invitrogen Corporation) was added. After incubating for 2 to 3 hours, the fluorescence intensity of the medium was measured to monitor the cell respiration activity. Then, the cells were washed with PBS, and 20 μL/well of extraction buffer (0.1 M Tris-HCL (pH 7.2), 1% NP-40, 0.01% SDS, 100 μM PMSF, 1 μg/m aprotinin) and 20 μL/well of Assay Buffer (4% dimethylformamide, 100 mM Sodium phosphate-buffered (pH 7.1)) were added. The cells were solubilized at 4° C. for 3 hours, and DOPA oxidase activity was measured. DOPA oxidase activity was measured according to the following method, with reference to the MBTH method (Winder A. et al., 1991, Eur. J. Biochem. 198:317-326).
80 μL of the above-mentioned Assay Buffer, 60 μL of 20.7 mM MBTH (3-methyl-2-benzothiazolinone hydrazone) solution, and 40 μL of 5 mM L-DOPA (L-dihydroxyphenylalanine) solution as a substrate, were added to each well of solubilized cell solution, and the mixture was allowed for reaction at 37° C. for 30 to 60 minutes. Then the color reaction was measured based on absorbance at 490 nm (N=3). The measurements are expressed as values relative to that of the control.

[5] = test system: mouse melanoma B-16 cells; settings: reported in JP-A-9-249544; cited from earlier work
[6] = 10 μM (IPMP 0.00015 w/v %), 3 days, Example 2
[7] = 100 μM (IPMP 0.0015 w/v %), 3 days, Example 2
[8] = 0.67 μM (0.00001 w/v %), Example 3
[9] = 167.5 μM (0.0025 w/v %), Example 3

| Structure (SMILES) | Alamar blue (cell toxicity) AVE [1, 6] | Alamar blue (cell toxicity) AVE [1, 7] | DOPA oxidase activity, value relative to that of the control ([2]; 50 μM (IPMP 0.00075%)) | DOPA oxidase activity, value relative to that of the control ([2]; 100 μM (IPMP […])) | DOPA oxidase activity, value relative to that of the control ([2]; 500 μM (IPMP 0.0075%)) | DOPA oxidase activity, value relative to that of the control ([2]; 1000 μM (IPMP […])) | DOPA oxidase activity suppressive effect (in words) [2] | Inhibitory activity on mushroom-derived tyrosinase (in words) [3] | DOPA oxidase activity AVE, relative to control [4, 6] | DOPA oxidase activity AVE, relative to control [4, 7] | DOPA oxidase activity suppressive effect (in words) ([4]; Example 2) | Suppressive effect on melanin production (in words) [5] | also measured |
| --- | --- | --- | --- | --- | --- | --- | --- | --- | --- | --- | --- | --- | --- |
| O=c1cc(CO)occ1O [Kojic acid] | 118.3 | 114.4 |  |  |  |  |  |  |  |  |  |  |  |
| Cc1ccc(C(C)C)c(O)c1 [compound 1, thymol] | 84.9 | 104.4 | 103.7 ± 0.9 | 93.8 ± 1.6 | 104.4 ± 0.8 | 105.4 ± 0.5 | did not show DOPA oxidase activity suppressive effect | exhibit inhibitory activity on mushroom-derived tyrosinase | 98.6 | 95 | did not show DOPA oxidase activity suppressive effect | exhibit suppressive effect on melanin production |  |
| Cc1cc(O)ccc1C(C)C [IPMP, isopropylmethylphenol] | 94.1 | 127 | 83.1 ± 3.9 | 62.9 ± 3.5 | 32.8 ± 3.7 | 19.8 ± 1.2 |  |  | 74.8 | 50.6 |  |  | DOPA oxidase activity AVE, relative to control [4, 8]: 73.7; DOPA oxidase activity AVE, relative to control ([4]; 6.7 μM, Example 3): 56.5; DOPA oxidase activity AVE, relative to control ([4]; 67 μM (0.001 w/v %), Example 3): 33.9; DOPA oxidase activity AVE, relative to control [4, 9]: 25.6; Alamar blue (cell toxicity) AVE [1, 8]: 84.9; Alamar blue (cell toxicity) AVE ([1]; 6.7 μM (6.0001 w/v %), Example 3): 85.4; Effect on cell growth (in words) ([1]; 0.00001 to 0.0025 w/v %, Example 3): did not affect cell growth; Alamar blue (cell toxicity) AVE ([1]; 67 μM (0.001 w/v %), Example 3): 78.9; Alamar blue (cell toxicity) AVE [1, 9]: 77.0; Effect on cell growth (alamar blue method, in words) ([1]; at the concentration which showed DOPA oxidase activity suppressive effect, Example 2): did not affect cell growth |
| Cc1ccc(C(C)C)cc1O [compound 2, carvacrol] | 94.2 | 115.2 | 102.1 ± 0.5 | 96.9 ± 1.8 | 99.6 ± 1.8 | 97.8 ± 1.9 | did not show DOPA oxidase activity suppressive effect | exhibit inhibitory activity on mushroom-derived tyrosinase | 99.3 | 96.3 | did not show DOPA oxidase activity suppressive effect | exhibit suppressive effect on melanin production |  |
